In US20250129028A1, “COMPOUNDS AND METHODS FOR YAP/TEAD MODULATION AND INDICATIONS THEREFOR” (Opna Bio SA, priority 2022, published 2025):

Tested on: TEAD-dependent transcription
Experiment: TEAD-dependent transcription cell-based reporter assay (MSTO-211H+12XGTIIC luciferase)
Set-up: species or system human
Conditions: Homo sapiens; MSTO-211H+12XGTIIC cell line, luciferase signal normalized to cell viability, 24 hours compound incubation; read-out: MSTO-211H GMean IC50 (uM) Cell Assay Reporter Cell Variant: TEAD
Description: Determine Inhibitor Activity Against TEAD-Dependent Transcription in a Cell-Based Reporter Assay
The human mesothelioma cell line MSTO-211H was stably transfected with a pGL4.21 plasmid containing a synthetic promoter with 12 copies of the GTIIC TEAD response element that drives the expression of a luciferase reporter gene^1 using Lipofectamine transfection reagent (Thermo Fisher). Transfected cells were selected using puromycin and single cell clones expressing this construct (referred to as MSTO-211H+12XGTIIC) were generated by limiting dilution. MSTO-211H cells was characterized by genetic alterations in key components of the Hippo pathway^2, resulting in up-regulation of YAP/TEAD-mediated transcription. […] To evaluate TEAD inhibitors, the MSTO-211H+12XGTIIC cell line was seeded in a 96-well plate in 50 μL of culture media at 1×10^4 cells per well and incubated at 37° C. overnight. Serial dilutions of compounds (in total volume of 50 μL of culture media) were added to the cells and incubated at 37° C. for 24 hours. Each plate included cells treated with DMSO as high controls and cells treated with 20 μM of the reference compound K-975 (a known TEAD inhibitor)^3 as low controls. Cell viability was assayed by the addition of 25 μL of CellTiter-Fluor reagent (Promega) followed by a 30-minute incubation at 37° C. and quantification of the fluorescence signal (Ex400/Em505). Subsequently, luciferase expression was assayed by the addition of 25 μL of ONE-Glo reagent (Promega) followed by a 10-minute incubation at room temperature and quantification of the luminescence signal. The luminescence signal was normalized to the fluorescence signal to correct for any loss in cell viability over the 24-hour compound incubation period. The percentage of inhibition of normalized luminescence signal, indicative of compound-mediated inhibition of TEAD-dependent transcription, at individual compound concentrations relative to high and low controls was calculated. The data were analyzed by using nonlinear regression to generate IC50 values for individual compounds.

| SMILES | IC50 [µM] |
| --- | --- |
| O=C1CCC(C(=O)N2CCc3ccc(Oc4ccc(C(F)(F)F)cc4)cc3C2)CN1 (centres unmarked) [P-0129, 5-(7-(4-(trifluoromethyl)-phenoxy)-1,2,3,4-tetra-hydroisoquinoline-2-carbonyl)piperidin-2-one] | 0.001 to 10 |
| C=CS(=O)(=O)N1CCC(C(=O)N2CCc3ccc(Oc4ccc(C(F)(F)F)c(F)c4)cc3C2)C1 (centres unmarked) [P-0158, (7-(3-fluoro-4-(trifluoro-methyl)phenoxy)-3,4-dihydroisoquinolin-2(1H)-yl)(1-(vinylsul-fonyl)pyrrolidin-3-yl)-methanone] | 0.001 to 10 |
| C=CC(=O)N1CC(C(=O)N2CCc3c(cccc3Oc3ccc(C(F)(F)F)cc3)C2)C1 [P-0255, 1-(3-(5-(4-(trifluorometh-yl)phenoxy)-1,2,3,4-tetrahydroisoquinoline-2-carbonyl)azetidin-1-yl)prop-2-en-1-one] | 0.001 to 10 |
| O=C(c1cnco1)N1CCc2ccc(Oc3ccc(C(F)(F)F)cc3)cc2C1 [P-0122, oxazol-5-yl(7-(4-(trifluoromethyl)phen-oxy)-3,4-dihydroisoquin-olin-2(1H)-yl)methanone] | 0.001 to 10 |
| O=C(C1CNC1)N1CCc2ccc(Oc3ccc(C(F)(F)F)c(F)c3)cc2C1 [P-0144, azetidin-3-yl(7-(3-fluoro-4-(trifluoromethyl)phen-oxy)-3,4-dihydroisoquin-olin-2(1H)-yl)methanone] | 0.001 to 10 |
| CC(C)NC(=O)N1CCc2c(cccc2Oc2ccc(C(F)(F)F)cc2)C1 [P-0233, N-isopropyl-5-(4-(trifluoromethyl)phen-oxy)-3,4-dihydroisoquin-oline-2(1H)-carboxamide] | 0.001 to 10 |
| O=C(NC1CCCC1)N1CCc2c(cccc2Oc2ccc(C(F)(F)F)cc2)C1 [P-0232, N-cyclopentyl-5-(4-(trifluoromethyl)phen-oxy)-3,4-dihydroisoquin-oline-2(1H)-carboxamide] | 0.001 to 10 |
| CN(C)C1CC(C(=O)N2CCc3ccc(Oc4ccc(C(F)(F)F)c(F)c4)cc3C2)C1 (centres unmarked) [P-0111, (3-(dimethylamino)cyclo-butyl)(7-(3-fluoro-4-(trifluoromethyl)phen-oxy)-3,4-dihydroisoquin-olin-2(1H)-yl)methanone] | 0.001 to 10 |
| Nc1nc(C(=O)N2CCc3ccc(Oc4ccc(C(F)(F)F)cc4)cc3C2)c[nH]1 [P-0107, (2-amino-1H-imidazol-4-yl)(7-(4-(trifluoromethyl)-phenoxy)-3,4-dihydroiso-quinolin-2(1H)-yl)meth-anone] | 0.001 to 10 |
| O=C(CC1COC1)N1CCc2ccc(Oc3ccc(C(F)(F)F)cc3)cc2C1 [P-0069, 2-(oxetan-3-yl)-1-(7-(4-(trifluoromethyl)phen-oxy)-3,4-dihydroisoquin-olin-2(1H)-yl)ethan-1-one] | 0.001 to 10 |
| CS(=O)(=O)c1nccc(N2CCc3ccc(Oc4ccc(C(F)(F)F)cc4)cc3C2)n1 [P-0226, 2-(2-(methylsulfonyl)-pyrimidin-4-yl)-7-(4-(trifluoromethyl)phen-oxy)-1,2,3,4-tetrahydro-isoquinoline] | 0.001 to 10 |
| CN(C)CCCC(=O)N1CCc2ccc(Oc3ccc(C(F)(F)F)c(F)c3)cc2C1 [P-0110, 4-(dimethylamino)-1-(7-(3-fluoro-4-(trifluoro-methyl)phenoxy)-3,4-dihydroisoquinolin-2(1H)-yl)butan-1-one] | 0.001 to 10 |
| O=C(CCC(=O)C(F)(F)F)N1CCc2ccc(Oc3ccc(C(F)(F)F)cc3)cc2C1 [P-0076, 5,5,5-trifluoro-1-(7-(4-(trifluoromethyl)phen-oxy)-3,4-dihydroisoquin-olin-2(1H)-yl)pentane-1,4-dione] | 0.001 to 10 |
| O=S(=O)(N1CCCC1)N1CCc2ccc(Oc3ccc(C(F)(F)F)cc3)cc2C1 [P-0030, 2-(pyrrolidin-1-ylsulfon-yl)-7-(4-(trifluorometh-yl)phenoxy)-1,2,3,4-tetrahydroisoquinoline] | 0.001 to 10 |
| CS(=O)(=O)c1ncc(C(=O)N2CCc3ccc(Oc4ccc(C(F)(F)F)cc4)cc3C2)s1 [P-0075, (2-(methylsulfonyl)thi-azol-5-yl)(7-(4-(trifluoro-methyl)phenoxy)-3,4-dihydroisoquinolin-2(1H)-yl)methanone] | 0.001 to 10 |
| O=C(N1CCc2ccc(Oc3ccc(C(F)(F)F)cc3)cc2C1)C12CC1C2 (centres unmarked) [P-0011, bicyclo[1.1.0]butan-1-yl(7-(4-(trifluoromethyl)-phenoxy)-3,4-dihydro-isoquinolin-2(1H)-yl)-methanone] | 0.001 to 10 |

| SMILES | IC50 [µM] |
| --- | --- |
| CC(=O)N1CC(Cc2c(Oc3ccc(C(F)(F)F)cc3)ccc3c2CN(C(=O)CCS(C)(=O)=O)CC3)C1 [P-0216, 1-(8-((1-acetylazetidin-3-yl)methyl)-7-(4-(trifluoromethyl)phen-oxy)-3,4-dihydroisoquin-olin-2(1H)-yl)-3-(methyl-sulfonyl)propan-1-one] | 0.001 to 10 |
| CS(=O)(=O)CCC(=O)N1CCc2ccc(-c3ccc(OC(F)(F)F)cc3)cc2C1 [P-0277, 3-(methylsulfonyl)-1-(7-(4-(trifluoromethoxy)phenyl)-3,4-dihydroisoquinolin-2(1H)-yl)propan-1-one] | 10 to 100 |
| CCCCS(=O)(=O)N1CCc2ccc(Oc3ccc(C(F)(F)F)cc3)cc2C1 [P-0034, 2-(butylsulfonyl)-7-(4-(trifluoromethyl)phen-oxy)-1,2,3,4-tetrahydro-isoquinoline] | 0.001 to 10 |
| Nc1ncc(CC(=O)N2CCc3ccc(Oc4ccc(C(F)(F)F)cc4)cc3C2)s1 [P-0093, 2-(2-aminothiazol-5-yl)-1-(7-(4-(trifluoromethyl)-phenoxy)-3,4-dihydroiso-quinolin-2(1H)-yl)ethan-1-one] | 0.001 to 10 |
| O=C(CCS(=O)(=O)C(F)(F)F)N1CCc2ccc(Oc3ccc(C(F)(F)F)cc3)cc2C1 [P-0061, 1-(7-(4-(trifluorometh-yl)phenoxy)-3,4-dihydro-isoquinolin-2(1H)-yl)-3-((trifluoromethyl)sulfon-yl)propan-1-one] | 0.001 to 10 |
| O=C(CC1CCOC1)N1CCc2ccc(Oc3ccc(C(F)(F)F)cc3)cc2C1 (centres unmarked) [P-0086, 2-(tetrahydrofuran-3-yl)-1-(7-(4-(trifluorometh-yl)phenoxy)-3,4-dihydro-isoquinolin-2(1H)-yl)-ethan-1-one] | 0.001 to 10 |
| C=CC(=O)N1CC(C(=O)N2CCc3ccc(Oc4ccc(C(F)(F)F)c(F)c4)cc3C2)C1 [P-0118, 1-(3-(7-(3-fluoro-4-(trifluoromethyl)phen-oxy)-1,2,3,4-tetrahydro-isoquinoline-2-carbon-yl)azetidin-1-yl)prop-2-en-1-one] | 0.001 to 10 |
| O=C(NC1(C(=O)N2CCc3ccc(Oc4ccc(C(F)(F)F)cc4)cc3C2)CC1)C(F)(F)F [P-0136, 2,2,2-trifluoro-N-(1-(7-(4-(trifluoromethyl)phen-oxy)-1,2,3,4-tetrahydro-isoquinoline-2-carbonyl)-cyclopropyl)acetamide] | 0.001 to 10 |
| NC(=O)NCC(=O)N1CCc2c(cccc2-c2ccc(C(F)(F)F)cc2)C1 [P-0272, 1-(2-oxo-2-(5-(4-(trifluoromethyl)phen-yl)-3,4-dihydroisoquin-olin-2(1H)-yl)ethyl)urea] | 0.001 to 10 |
| CCNC(=O)N1CCc2ccc(Oc3ccc(C(F)(F)F)cc3)cc2C1 [P-0003, N-ethyl-7-(4-(trifluoro-methyl)phenoxy)-3,4-dihydroisoquinoline-2(1H)-carboxamide] | 0.001 to 10 |
| O=C(C1CCCNC1)N1CCc2ccc(Oc3ccc(C(F)(F)F)c(F)c3)cc2C1 (centres unmarked) [P-0146, (7-(3-fluoro-4-(trifluoro-methyl)phenoxy)-3,4-dihydroisoquinolin-2(1H)-yl)(piperidin-3-yl)methanone] | 0.001 to 10 |
| CN1CCN(CCC(=O)N2CCc3ccc(Oc4ccc(C(F)(F)F)c(F)c4)cc3C2)CC1 [P-0095, 1-(7-(3-fluoro-4-(trifluoromethyl)phenoxy)-3,4-dihydroisoquinolin-2(1H)-yl)-3-(4-methylpiperazin-1-yl)propan-1-one] | 0.001 to 10 |
| CS(=O)(=O)CCC(=O)N1CCc2ccc(Oc3ccc(Cl)cc3)cc2C1 [P-0090, 1-(7-(4-chlorophenoxy)-3,4-dihydroisoquinolin-2(1H)-yl)-3-(methylsul-fonyl)propan-1-one] | 0.001 to 10 |
| N#CC1(CC(=O)N2CCc3ccc(Oc4ccc(C(F)(F)F)cc4)cc3C2)CC1 [P-0060, 1-(2-oxo-2-(7-(4-(trifluoromethyl)phen-oxy)-3,4-dihydroiso-quinolin-2(1H)-yl)-ethyl)cyclopropane-1-carbonitrile] | 0.001 to 10 |
| CCC1c2cc(Oc3ccc(C(F)(F)F)cc3)ccc2CCN1C(=O)CCS(C)(=O)=O (centres unmarked) [P-0209, 1-(1-ethyl-7-(4-(trifluoro-methyl)phenoxy)-3,4-dihydroisoquinolin-2(1H)-yl)-3-(methylsul-fonyl)propan-1-one] | 0.001 to 10 |
| CS(=O)(=O)CCC(=O)N1CCc2ccc(Oc3ccc(C(F)(F)F)cc3)c(/C=C/C3CCNCC3)c2C1 [P-0222, (E)-3-(methylsulfonyl)-1-(8-(2-(piperidin-4-yl)-vinyl)-7-(4-(trifluoro-methyl)phenoxy)-3,4-dihydroisoquinolin-2(1H)-yl)propan-1-one] | 0.001 to 10 |
